Laboratory results as given in patent publication US20260258032A1, “TYROSINE KINASE 2 INHIBITORS AND USES THEREOF” (BIOGEN MA INC., priority 2022, published 2026).
Where a name gives a salt, the structure may show the parent alone.

Tests used:
JH2 domain of human Tyk2 = target: T1, JH2 domain of human Tyk2 (Homo sapiens, UniProt P29597); test: JH2 biochemical assay (TR-FRET probe displacement); format: binding; conditions: JH2 biochemical assay
T1 construct: 10×His-tagged TYK2 JH2 domain (amino acid 575-876)
Outline: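 A probe-displacement TR-FRET readout: compounds, tested in 3-fold, 10-point dilutions starting at […], compete with 2 nM tracer for 2 nM His-tagged JH2 (residues 575-876) detected by 0.1 nM Tb-anti-His over 60 min. IC50 comes from 4-parameter fits of normalized 520/495 nm ratios.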

[1] = system: Tyk2 kinase activity on STAT4; test: pSTAT4 cell assay (MSD, NK92 cells); format: cell-based; conditions: compounds 1 hr, stimulated 15 minutes
Outline: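 IC50 values come from 4-parameter logistic fits of normalized percent activity. Phospho-STAT was read by MSD (anti-STAT4 antibodies) in NK92 lysates after a 15 min stimulation with 30 ng/mL IL2. The serum-starved cells had been given compound for 1 h (10 points, four-fold, top 10 μM).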

T1 sequence (P29597 575-876): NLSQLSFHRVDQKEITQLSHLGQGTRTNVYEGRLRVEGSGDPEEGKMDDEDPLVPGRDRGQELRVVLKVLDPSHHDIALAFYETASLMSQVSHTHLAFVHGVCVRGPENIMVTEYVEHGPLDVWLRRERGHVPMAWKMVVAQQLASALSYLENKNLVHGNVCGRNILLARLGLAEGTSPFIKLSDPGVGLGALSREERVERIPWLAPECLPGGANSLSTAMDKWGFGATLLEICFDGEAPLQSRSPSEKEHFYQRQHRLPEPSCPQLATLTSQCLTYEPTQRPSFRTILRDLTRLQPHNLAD

| SMILES | IC50 (JH2 domain of human Tyk2) | IC50 [1] |
| --- | --- | --- |
| CC(=O)Nc1cc2c(cn1)C1(CC1)CN2c1cc(C)cc(OC2CC(F)C2)n1 (stereo not shown) [Example 346, N-(1′-(6-(3-fluorocyclobutoxy)-4-methylpyridin-2-yl)-1′,2′-dihydrospiro[cyclopropane-1,3′-pyrrolo[3,2-c]pyridin]-6′-yl)acetamide trifluoroacetate] | 100 to 1000 nM | ≥ 1000 nM |
| CC(=O)Nc1cc2c(cn1)C1(CC1)CN2c1cc(C)cc(OC2CC(C)C2)n1 (stereo not shown) [Example 347, N-(1′-(4-methyl-6-(3-methylcyclobutoxy)pyridin-2-yl)-1′,2′-dihydrospiro[cyclopropane-1,3′-pyrrolo[3,2-c]pyridin]-6′-yl)acetamide trifluoroacetate] | 100 to 1000 nM | ≥ 1000 nM |
| CC(=O)Nc1cc2c(cn1)C1(CC1)CN2c1cc(C)cc(OC2CC(F)C2)n1 (stereo not shown) [Example 348, N-(1′-(6-(3-fluorocyclobutoxy)-4-methylpyridin-2-yl)-1′,2′-dihydrospiro[cyclopropane-1,3′-pyrrolo[3,2-c]pyridin]-6′-yl)acetamide trifluoroacetate] | 100 to 1000 nM | ≥ 1000 nM |
| CC(=O)Nc1cc2c(cn1)C1(CC1)CN2c1cc(C)cc(OCC23CC(C)(CO2)C3)n1 [Example 349, N-(1′-(4-methyl-6-((4-methyl-2-oxabicyclo[2.1.1]hexan-1-yl)methoxy)pyridin-2-yl)-1′,2′-dihydrospiro[cyclopropane-1,3′-pyrrolo[3,2-c]pyridin]-6′-yl)acetamide] | 100 to 1000 nM | ≥ 1000 nM |
| COC1CC(COc2cc(C)cc(N3CC4(CC4)c4cnc(NC(C)=O)cc43)n2)C1 (stereo not shown) [Example 350, N-(1′-(6-((3-methoxycyclobutyl)methoxy)-4-methylpyridin-2-yl)-1′,2′-dihydrospiro[cyclopropane-1,3′-pyrrolo[3,2-c]pyridin]-6′-yl)acetamide] | 100 to 1000 nM | ≥ 1000 nM |
| COC1(COc2cc(C)cc(N3CC4(CC4)c4cnc(NC(C)=O)cc43)n2)CCC1 [Example 351, N-(1′-(6-((1-methoxycyclobutyl)methoxy)-4-methylpyridin-2-yl)-1′,2′-dihydrospiro[cyclopropane-1,3′-pyrrolo[3,2-c]pyridin]-6′-yl)acetamide] | 100 to 1000 nM | ≥ 1000 nM |
| CC(=O)Nc1cc2c(cn1)C1(CC1)CN2c1cc(C)cc(OCC2CC2)n1 [Example 352, N-(1′-(6-(cyclopropylmethoxy)-4-methylpyridin-2-yl)-1′,2′-dihydrospiro[cyclopropane-1,3′-pyrrolo[3,2-c]pyridin]-6′-yl)acetamide trifluoroacetate] | 100 to 1000 nM | ≥ 1000 nM |
| CC(=O)Nc1cc2c(cn1)C1(CC1)CN2c1cc(C)cc(OC2CCC(F)C2)n1 (stereo not shown) [Example 353, N-(1′-(6-((3-fluorocyclopentyl)oxy)-4-methylpyridin-2-yl)-1′,2′-dihydrospiro[cyclopropane-1,3′-pyrrolo[3,2-c]pyridin]-6′-yl)acetamide trifluoroacetate] | 100 to 1000 nM | ≥ 1000 nM |
| CC(=O)Nc1cc2c(cn1)C1(CC1)CN2c1cc(C)cc(OC2CCCC2)n1 [Example 354, N-(1′-(6-(cyclopentyloxy)-4-methylpyridin-2-yl)-1′,2′-dihydrospiro[cyclopropane-1,3′-pyrrolo[3,2-c]pyridin]-6′-yl)acetamide trifluoroacetate] | 100 to 1000 nM | ≥ 1000 nM |
| CC(=O)Nc1cc2c(cn1)C1(CC1)CN2c1cc(C)cc(OCCF)n1 [Example 355, N-(1′-(6-(2-fluoroethoxy)-4-methylpyridin-2-yl)-1′,2′-dihydrospiro[cyclopropane-1,3′-pyrrolo[3,2-c]pyridin]-6′-yl)acetamide trifluoroacetate] | ≤ 10 nM | 100 to 1000 nM |
| CC(=O)Nc1cc2c(cn1)C1(CC1)CN2c1cc(C)cc(OCC(C)(F)F)n1 [Example 356, N-(1′-(6-(2,2-difluoropropoxy)-4-methylpyridin-2-yl)-1′,2′-dihydrospiro[cyclopropane-1,3′-pyrrolo[3,2-c]pyridin]-6′-yl)acetamide trifluoroacetate] | 10 to 100 nM | ≥ 1000 nM |
| COCCOc1cc(C)cc(N2CC3(CC3)c3cnc(NC(C)=O)cc32)n1 [Example 357, N-(1′-(6-(2-methoxyethoxy)-4-methylpyridin-2-yl)-1′,2′-dihydrospiro[cyclopropane-1,3′-pyrrolo[3,2-c]pyridin]-6′-yl)acetamide trifluoroacetate] | 10 to 100 nM | ≥ 1000 nM |
| CC(=O)Nc1cc2c(cn1)C1(CC1)CN2c1cc(C)cc(OCC2CCO2)n1 (stereo not shown) [Example 358, N-(1′-(4-methyl-6-(oxetan-2-ylmethoxy)pyridin-2-yl)-1′,2′-dihydrospiro[cyclopropane-1,3′-pyrrolo[3,2-c]pyridin]-6′-yl)acetamide trifluoroacetate] | ≥ 1000 nM | ≥ 1000 nM |
| CC(=O)Nc1cc2c(cn1)C1(CC1)CN2c1cc(OC2CCN(C)C2)nc(C(C)(F)F)n1 (stereo not shown) [Example 359, N-(1′-(2-(1,1-difluoroethyl)-6-((1-methylpyrrolidin-3-yl)oxy)pyrimidin-4-yl)-1′,2′-dihydrospiro[cyclopropane-1,3′-pyrrolo[3,2-c]pyridin]-6′-yl)acetamide trifluoroacetate] | 10 to 100 nM | ≥ 1000 nM |
| CC(=O)Nc1cc2c(cn1)C1(CC1)CN2c1cc(C)nc(OC2CC(F)(F)C2)n1 [Example 363, N-(1′-(2-(3,3-difluorocyclobutoxy)-6-methylpyrimidin-4-yl)-1′,2′-dihydrospiro[cyclopropane-1,3′-pyrrolo[3,2-c]pyridin]-6′-yl)acetamide] | 100 to 1000 nM | ≥ 1000 nM |
| CC(=O)Nc1cc2c(cn1)C1(CC1)CN2c1cc(C)nc(OC2CC3(COC3)C2)n1 [Example 364, N-(1′-(2-((2-oxaspiro[3.3]heptan-6-yl)oxy)-6-methylpyrimidin-4-yl)-1′,2′-dihydrospiro[cyclopropane-1,3′-pyrrolo[3,2-c]pyridin]-6′-yl)acetamide] | 100 to 1000 nM | ≥ 1000 nM |
| CC(=O)Nc1cc2c(cn1)C1(CC1)CN2c1cc(C)nc(OC2CC(C)C2)n1 (stereo not shown) [Example 367, N-(1′-(6-methyl-2-(3-methylcyclobutoxy)pyrimidin-4-yl)-1′,2′-dihydrospiro[cyclopropane-1,3′-pyrrolo[3,2-c]pyridin]-6′-yl)acetamide] | 100 to 1000 nM | ≥ 1000 nM |
| CC(=O)Nc1cc2c(cn1)C1(CC1)CN2c1cc(C)nc(OC2CC(F)(C#N)C2)n1 (stereo not shown) [Example 368, N-(1′-(2-(3-cyano-3-fluorocyclobutoxy)-6-methylpyrimidin-4-yl)-1′,2′-dihydrospiro[cyclopropane-1,3′-pyrrolo[3,2-c]pyridin]-6′-yl)acetamide] | 100 to 1000 nM | ≥ 1000 nM |
| CC(=O)Nc1cc2c(cn1)C1(CC1)CN2c1cc(C)nc(OCC2CC2)n1 [Example 369, N-(1′-(2-(cyclopropylmethoxy)-6-methylpyrimidin-4-yl)-1′,2′-dihydrospiro[cyclopropane-1,3′-pyrrolo[3,2-c]pyridin]-6′-yl)acetamide] | 100 to 1000 nM | ≥ 1000 nM |
| CC(=O)Nc1cc2c(cn1)C1(CC1)CN2c1cc(C)nc(OC2CC(F)C2)n1 (stereo not shown) [Example 370, N-(1′-(2-(3-fluorocyclobutoxy)-6-methylpyrimidin-4-yl)-1′,2′-dihydrospiro[cyclopropane-1,3′-pyrrolo[3,2-c]pyridin]-6′-yl)acetamide] | 100 to 1000 nM | ≥ 1000 nM |
